According to patent US8748111B2, “Multiplexed olfactory receptor-based microsurface plasmon polariton detector” (Massachusetts Institute of Technology, priority 2008, dated 2014):
“And” between values parts separate entries of the source, which are not always exact repeats. Equal entries are not always repeated. “Also recorded” adds a separate entry of the source.

Assays:
hOR17-4 [1] = target: T1, hOR17-4 (Homo sapiens, UniProt P34982, R25Q); assay: Intracellular calcium-ion mobility assay in induced HEK293S cells; format: cell-based; design: of which 969 by code for the 323 amino acid hOR17-4-GlyGly-rho1D4 protein; made in house; details: for cytosolic Ca2+ response to odorant: Fura-Red
T1 sequence (P34982 with tags, fused parts or gaps R25Q): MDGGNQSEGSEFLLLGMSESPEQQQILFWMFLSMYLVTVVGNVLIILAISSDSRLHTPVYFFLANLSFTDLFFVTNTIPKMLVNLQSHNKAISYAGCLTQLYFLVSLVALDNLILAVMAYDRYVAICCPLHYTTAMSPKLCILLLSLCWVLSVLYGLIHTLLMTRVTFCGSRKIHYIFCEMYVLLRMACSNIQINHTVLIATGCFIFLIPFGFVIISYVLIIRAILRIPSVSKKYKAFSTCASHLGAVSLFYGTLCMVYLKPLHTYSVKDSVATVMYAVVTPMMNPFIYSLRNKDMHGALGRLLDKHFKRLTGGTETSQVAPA
Experimental: To determine if receptors expressed at the surface of induced HEK293S rho5 cells was functional, we performed calcium-influx assays. In our heterologous HEK293S system, olfactory receptors can signal through the inositol triphosphate (IP3) pathway to release intracellular Ca2+, using the “promiscuous” G-protein Gαq.
HEK293S rho5 cells were seeded and grown on glass coverslips until they reached 80-90% confluency. Expression of hOR17-4 was then induced with media containing tetracycline (1 μg/ml) for 48 hours. Cells were then washed with PBS and loaded with the calcium sensitive dye Fluo-3 (Invitrogen) according to the manufacturers instructions. Coverslips were then mounted and visualized using time-lapse confocal microscopy. Experiments were conducted in PBS and odorant stocks were added by hand using a pipettor to final concentrations between 1-100 μM. Both specific and non-specific odorants were tested. As an additional control to test whether cells could increase internal calcium levels, 1 mM ATP was added.
The functional activity and specificity of hOR17-4 was probed in heterologous HEK293S cells by monitoring intracellular calcium-ion concentrations using time-lapse confocal microscopy (19). In our HEK293S cells, olfactory receptors can signal through the inositol triphosphate (IP3) pathway to release intracellular Ca^2+ from the ER, mediated by the “promiscuous” G-protein Gαq. Induced cells responded to the specific odorant bourgeonal at concentrations as low as 1 μM (FIG. 28). […] Importantly, nearly 100% of the cells were responsive to bourgeonal due to the stable-inducible nature of this system, a vast improvement over expression methods that relied on transient transfection with less than 5% of cells being responsive (3).
hOR17-4 expression in the stable HEK293S cell line was induced by 48-hour incubation in DMEM/F12 medium with GlutaMAX, supplemented with 1 μg/ml tetracycline. Then cells were loaded at 37° C. for 30 min with […] Fura-Red-AM (Molecular Probes) in serum-free DMEM/F12 medium and were subsequently washed with PBS and incubated in DMEM/F12 medium containing 10% FCS for 30 min to allow complete hydrolysis of intracellular Fura-Red-AM. Cytosolic Ca^2+ responses were recorded by confocal fluorescence microscopy (Zeiss LSM 510) using a water immersion objective (Zeiss Achroplan 63×, NA 1.2). Excitation was at 488 nm (Ar^+ laser); the 650 nm long pass emission filter was used to image Fura-Red at a rate of 1 image per second. Stock solutions of the tested odorants were prepared freshly in DMSO and diluted 1000-fold into PBS to give the desired concentrations.

hOR17-4 [2] = target: T1, hOR17-4; assay: Surface plasmon resonance (Biacore A100) odorant binding assay, detergent-solubilized receptor from HEK293S cells; design: of which 969 by code for the 323 amino acid hOR17-4-GlyGly-rho1D4 protein; made in house; lysate supernatant captured on the chip; details: not rigorously determined due to low odorant solubility above 40 μM
Text: First, the rho1D4 mAb was covalently attached to the dextran surface of a Biacore CM4 chip using standard amine-coupling chemistry. The hOR17-4 receptor protein was then non-covalently captured on the antibody via its C-terminal rho tag (TETSQVAPA (SEQ ID NO: 50)). Odorant ligands were then applied and odorant binding detected in real time via the mass-based refractive index change. […] Low affinity Biacore data is typically characterized by fast on- and off-rates, where curvature in the association and dissociation phase may not be observable. […] However, the sensorgram data shown reinforces the prediction of low, micromolar affinities for the two odorants.
All odorant binding experiments were performed at 25° C. on a Biacore™ A100 (GE Healthcare), which has a parallel flow configuration, allowing assay development (e.g., solubilization conditions) to be tested and optimized in parallel and multiplexed format. The sensor chip CM4, amine-coupling kit, HBS (10 mM Hepes, 0.15 M NaCl, pH 7.4) and PBS were from GE Healthcare. The detailed protocol (see Supporting Information) was adapted, with several key modifications, from that previously reported by Kaiser et al. (25). […]

hOR17-4 [3] = target: T2, hOR17-4 (Homo sapiens, UniProt P34982); assay: Surface plasmon resonance (Biacore T100) odorant binding assay, cell-free produced receptor
T2 construct: made in house; host or cells: wheat germ cell-free extract (Roche RTS Wheat Germ CECF kit)
T2 sequence (P34982 1-312): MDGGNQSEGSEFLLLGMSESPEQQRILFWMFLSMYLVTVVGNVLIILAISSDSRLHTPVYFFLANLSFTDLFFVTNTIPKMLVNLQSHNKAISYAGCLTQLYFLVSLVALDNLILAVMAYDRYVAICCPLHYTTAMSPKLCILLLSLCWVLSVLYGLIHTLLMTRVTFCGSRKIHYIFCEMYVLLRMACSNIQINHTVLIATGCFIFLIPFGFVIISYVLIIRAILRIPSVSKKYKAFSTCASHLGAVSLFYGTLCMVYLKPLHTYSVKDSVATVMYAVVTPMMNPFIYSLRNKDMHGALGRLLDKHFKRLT
Experimental: All odorant binding experiments were performed on a Biacore™ T100 (GE Healthcare, Uppsala, Sweden) at 25° C. The sensor chip CM4, amine coupling kit, HBS (10 mM Hepes, 0.15 M NaCl, pH 7.4) and PBS were from (GE Healthcare, Uppsala, Sweden).
A anti His-tag antibody (R&D Systems, Minneapolis, Minn., USA) at 5 μg/ml in 10 mM sodium acetate pH 4.75 was immobilized onto a series S sensor chip using standard amine-coupling chemistry in HBS running buffer at 10 μl/min (33). The amount of coupled antibody was about 13000 RU. Control surfaces were prepared similarly without protein derivatization and utilized as a reference surfaces for compound binding experiments. Cell-free lysate containing the expressed olfactory receptor was centrifuged for […] at 14000×g at 4° C., to remove larger particles. The supernatant, containing about 0.6 mg/ml olfactory receptor, was immediately captured on the surface plasmon resonance (SPR) chip using PBS and 3% (v/v) DMSO as running buffer at 10 μl/min. […] A 30 sec pulse of coupling reagents was injected to achieve the stable baseline needed for the kinetic assay.
Fresh odorant undecanal solutions were made as follows. Pure odorant was diluted in DMSO to 0.5 M. This solution was diluted 33.3 times in PBS to obtain a […] odorant solution in running buffer with 3% (v/v) DMSO. […]

[4] = tetracycline-induced HEK293S cells

| cytosolic Ca2+ response to odorant (hOR17-4 [1]; [4]) | equilibrium dissociation constant (hOR17-4 [2]) | SMILES | other results |
| --- | --- | --- | --- |
| No response | – | C/C=C/c1ccc(OC)cc1 [anithole] | – |
| transient Ca^2+ signaling | – | CC(C)(C)c1ccc(CCC=O)cc1 [bourgeonal] | cells responsive to odorant (hOR17-4 [1]; stable-inducible HEK293S cells): ~100%; lowest odorant concentration giving a Ca2+ response (hOR17-4 [1]; tetracycline-induced HEK293S cells, confocal microscopy): ≤ 1 µM |
| – | low micromolar range | CCc1ccc(CC(C)(C)C=O)cc1 [floralozone] | – |
| – | low micromolar range | CC(C=O)Cc1ccc(C(C)(C)C)cc1 (stereo not shown) [lilial] | – |
| No response | – | CCCCCCCC=O [octanal] | – |
| – | – | CCCCCCCCCCC=O [undecanal] | Kd (hOR17-4 [3]; equilibrium binding responses vs concentration fitted to a simple binding isotherm, 25° C., 3% DMSO, read-out: affinity constant, KD): 22 µM and ~22 µM; dose response binding (RU) (hOR17-4 [3]; injections at 1.2, 3.7, 11, 33 and 100 uM): binding response increases by increasing odorant concentration; inhibition of bourgeonal-induced hOR17-4 activation (hOR17-4 [1]; preincubation and co-application of 100 μM with bourgeonal 100 μM): Odorant response could be blocked; also recorded: inhibited hOR17-4 activation by bourgeonal |
